This is an account of results in ChEMBL document CHEMBL4715876 (J Med Chem, 2020).

A short description of series [1]: AUClast in BALB/C mouse at 10 mg/kg, iv measured upto 24 hrs by LC-MS analysis. In kind it is ADME, organism-based. More on the design: route intravenous, dose 10 mg/kg, time <= 24. Particulars: in vivo.
Series [2] can be described thus: Tmax in BALB/C mouse at 30 mg/kg, po measured upto 24 hrs by LC-MS analysis. In kind it is ADME, organism-based. Particulars: in vivo.
A short description of series [3]: Cmax in BALB/C mouse at 30 mg/kg,po measured upto 24 hrs by LC-MS analysis. It counts as ADME, organism-based. Particulars: in vivo. The arrangement: route oral, dose 30 mg/kg, time <= 24.
Series [4] can be described thus: Oral bioavailability in BALB/C mouse at 30 mg/kg measured upto 24 hrs by LC-MS analysis. It counts as ADME, organism-based. Particulars: in vivo.
The nature of series [5]: Drug uptake in CB.17 SCID mouse tumor xenografted with OCI-LY10 cells at 3 mg/kg, po once daily for 24 days. It counts as ADME, organism-based, Neoplasm. The settings on record: time 24 day, read-out: Drug uptake.
The nature of series [6]: Plasma concentration in CB.17 SCID mouse xenografted with OCI-LY10 cells at 3 mg/kg, po once daily for 24 days. Particulars: time 24 day. In kind it is ADME, organism-based.
Series [7] is described as follows: Drug uptake in CB.17 SCID mouse tumor xenografted with TMD-8 cells at 3 mg/kg, po once daily for 19 days. It counts as ADME, organism-based, Neoplasm. The settings on record: time 19 day, read-out: Drug uptake.
Series [8] in a line: Plasma concentration in CB.17 SCID mouse xenografted with TMD-8 cells at 3 mg/kg, po once daily for 19 days. In kind it is ADME, organism-based. Particulars: time 19 day.
A short description of series [9]: Drug uptake in CB.17 SCID mouse tumor xenografted with SUDHL-6 cells assessed as effect on body weight at 5 mg/kg, po once daily for 15 days. In kind it is ADME, organism-based, Neoplasm. Particulars: time 15 day, read-out: Drug uptake.
Series [10] can be described thus: Plasma concentration in CB.17 SCID mouse tumor xenografted with SUDHL-6 cells assessed as effect on body weight at 5 mg/kg, po once daily for 15 days. It counts as ADME, organism-based. The settings on record: time 15 day.
The nature of series [11]: Tmax in Sprague-Dawley rat at 3 mg/kg, iv measured upto 24 hrs by LC-MS/MS analysis. Particulars: in vivo. It counts as ADME, organism-based.
Series [12] in a line: Cmax in Sprague-Dawley rat at 3 mg/kg, iv measured upto 24 hrs by LC-MS/MS analysis. The arrangement: route intravenous, dose 3 mg/kg, time <=24. The settings on record: in vivo. It counts as ADME, organism-based.
The nature of series [13]: Volume of distribution at steady state in Sprague-Dawley rat at 3 mg/kg, iv measured upto 24 hrs by LC-MS/MS analysis. It counts as ADME, organism-based. Particulars: in vivo, read-out: Vdss.
A short description of series [14]: Tmax in Sprague-Dawley rat at 3 mg/kg, po measured upto 24 hrs by LC-MS/MS analysis. It counts as ADME, organism-based. The settings on record: in vivo.
A short description of series [15]: Cmax in Sprague-Dawley rat at 3 mg/kg, po measured upto 24 hrs by LC-MS/MS analysis. In kind it is ADME, organism-based. Particulars: in vivo. More on the design: route oral, dose 3 mg/kg, time <=24.
Series [16] is described as follows: Tmax in Beagle dog at 1 mg/kg, iv measured upto 24 hrs by LC-MS/MS analysis. In kind it is ADME, organism-based, Canis lupus familiaris. The settings on record: in vivo.
A short description of series [17]: Tmax in Beagle dog at 1 mg/kg, po measured upto 24 hrs by LC-MS/MS analysis. It counts as ADME, organism-based, Canis lupus familiaris. Particulars: in vivo.
A short description of series [18]: Cmax in Beagle dog at 1 mg/kg, po measured upto 24 hrs by LC-MS/MS analysis. It counts as ADME, organism-based, Canis lupus familiaris. The settings on record: in vivo. More on the design: route oral, dose 1 mg/kg, time <=24.
The nature of series [19]: Oral bioavailability in Beagle dog at 1 mg/kg measured upto 24 hrs by LC-MS/MS analysis. It counts as ADME, organism-based, Canis lupus familiaris. Particulars: in vivo.
Series [20] is described as follows: Volume of distribution at steady state in BALB/C mouse at 10 mg/kg, iv measured upto 24 hrs by LC-MS analysis. It counts as ADME, organism-based. The settings on record: in vivo, read-out: Vdss.
The next series in a line: in vivo. The settings on record: BALB/C, mouse, po, 30 mg/kg.

Molecules are shown by their SMILES.

In the case of `CC[C@H](Nc1ncnc2[nH]cnc12)c1nc2cccc(F)c2c(=O)n1-c1ccccc1` [IDELALISIB], the values for the AUC(0-t) at 24 h (in series [1]; in “in vivo”) were 7.43 µM·h and 9.25 µM·h, respectively. For the same compound, the Tmax was 15 min in [2]; 4.8 min in series [11]; 180 min in series [14]; 4.8 min in series [16]; 60 min in series [17]. For the same compound, the Cmax came out at 6980 nM in series [3], 3460 nM in [12], 310 nM in series [15] and 500 nM in series [18]. The results for the bioavailability in [4] and in series [19] were 37.6% and 48%, respectively. Moreover, the concentration at 576 h in [5] was found to be 150 nM; in series [6], 40 nM. The values for the concentration at 456 h in series [7] and in [8] were 140 nM and 20 nM, respectively. For the same compound, the concentration at 360 h in [9] was 80 nM; in [10], 30 nM. For the same compound, the Vd in series [13] was 2.49 L/kg; in [20], 0.73 L/kg.
